Earlier results, collected in publication PMC12525602, “Identification of Selective α-Glucosidase Inhibitors via Virtual Screening with Machine Learning” (Molecules, 2025).

System: α-glucosidase
Details: activity label in the 300-compound modeling dataset (Table S5); 1 = active, 0 = inactive; cited from earlier work

activity, 1:
CCOC(=O)c1ccc(-n2c(/C=C3\OC(=O)c4c3cc(C)[nH]c4=O)ccc2CO)cc1 [compound 228]
C[C@@H]1O[C@@H](O[C@H]2C(=O)c3c(O)cc(O)cc3O[C@@H]2c2ccc(O)c(O)c2)[C@H](O)[C@H](O)[C@H]1O [compound 229]
O=[N+]([O-])c1ccc(-c2nnc(/N=C(/CSc3nnc4c(n3)[nH]c3ccccc34)c3ccc(-c4ccccc4)cc3)s2)cc1 [compound 230]
O=c1c(O)c(-c2ccc(O)c(O)c2)oc2cc(O)ccc12 [compound 231]

Same assay, conditions: activity label of the 300-compound modeling dataset, Table S5; cited from earlier work

activity, 1:
Oc1cc(O)cc(-c2cc3cccc(Br)c3o2)c1 [compound 232]
O=C1CC(/C=N/Nc2cccc(Br)c2)Oc2ccccc21 (centres unmarked) [compound 233]
CC(C)(C)c1ccc(N/N=C/C2CC(=O)c3ccccc3O2)cc1 (centres unmarked) [compound 234]
O=C1CC(/C=N/Nc2ccc(F)cc2)Oc2ccccc21 (centres unmarked) [compound 235]
Clc1ncccc1CNc1cccc(-c2nc3ccccc3[nH]2)c1 [compound 237]
Cc1ccc(C(=O)COc2c(I)cc(Cl)c3cccnc23)cc1 [compound 238]
Cc1ccc(/C(CSc2nnc3c(n2)[nH]c2ccccc23)=N\c2nnc(-c3ccc([N+](=O)[O-])cc3)s2)cc1 [compound 239]
O=C(COc1c(I)cc(Cl)c2cccnc12)c1ccc(Cl)cc1 [compound 241]
O=C(COc1c(I)cc(Cl)c2cccnc12)c1ccc(-c2ccccc2)cc1 [compound 242]
COc1ccccc1/C(CSc1nnc2c(n1)[nH]c1ccccc12)=N\c1nnc(-c2ccc(Cl)c(Cl)c2)s1 [compound 243]
O=c1c(O)c(-c2ccc(O)cc2)oc2cc(O)cc(O)c12 [compound 244]
O=C(/C=C/c1cc(F)c(O)c(F)c1)c1cccc2[nH]c(=O)oc12 [compound 245]
O=C(/C=C/c1ccc(O)c(F)c1)c1cccc2[nH]c(=O)oc12 [compound 246]
O=C(/C=C/c1ccc(O)cc1)c1cccc2[nH]c(=O)oc12 [compound 247]
O=C(COc1c(I)cc(Cl)c2cccnc12)c1ccc([N+](=O)[O-])cc1 [compound 248]
COc1ccc(/C(CSc2nnc3c(n2)[nH]c2ccccc23)=N\c2nnc(-c3ccc(Cl)c(Cl)c3)s2)cc1 [compound 249]
O=C(N/N=C/C1CC(=O)c2ccccc2O1)c1ccc(O)cc1 (centres unmarked) [compound 250]
N#Cc1cccc(N/N=C/C2CC(=O)c3ccccc3O2)c1 (centres unmarked) [compound 251]
O=c1c(O)c(-c2ccc(O)cc2)oc2cc(O)ccc12 [compound 252]
COc1cc(/C=N/N=C2\C(=O)Nc3ccccc32)ccc1OCc1cn(Cc2ccc(C)cc2)nn1 [compound 253]
Brc1ccc(CNc2cccc(-c3nc4ccccc4[nH]3)c2)cn1 [compound 254]
O=C1C(=NNc2nncs2)c2ccccc2N1Cc1ccc(Cl)cc1 [compound 255]
O=C(COc1c(I)cc(Cl)c2cccnc12)c1ccc(Br)cc1 [compound 256]
Cc1ccc(-c2cnc3ccccc3n2)cc1 [compound 257]
CN(C)c1ccc(/C=N/CCc2ccc(O)cc2)cc1 [compound 258]
O=C1Nc2ccccc2/C1=N/N=C/c1ccc(OCc2cn(Cc3ccccc3)nn2)cc1 [compound 259]
Fc1cccc(CNc2cccc(-c3nc4ccccc4[nH]3)c2)c1 [compound 260]
COc1cc(-c2nc3ccccc3[nH]2)ccc1OCC(=O)Nc1ccc(F)cc1 [compound 261]
O=C1C(=NN=Cc2ccc(OCc3cn(Cc4ccc(F)cc4)nn3)cc2)c2ccccc2N1c1ccc(Br)cc1 [compound 262]
Cc1ccccc1Cn1cc(COc2ccc(/C=N/N=C3\C(=O)Nc4ccccc43)cc2)nn1 [compound 263]
COC(=O)Cn1c(=O)oc2c(C(=O)/C=C/c3cc(F)c(O)c(F)c3)cccc21 [compound 264]
Brc1cccc(CNc2cccc(-c3nc4ccccc4[nH]3)c2)n1 [compound 265]
COc1ccc2nc3cc(Cl)ccc3c(SCC(=O)NCc3cccc(Cl)c3)c2c1 [compound 266]
Cc1cc(C)cc(Cn2cc(COc3ccc(-c4nc(-c5ccccc5)c(-c5ccccc5)[nH]4)cc3)nn2)c1 [compound 267]
O=C(COc1c(I)cc(Cl)c2cccnc12)c1cccc(Br)c1 [compound 268]
Oc1cccc(-c2nnc(/N=C(/CSc3nnc4c(n3)[nH]c3ccccc34)c3ccc(-c4ccccc4)cc3)s2)c1 [compound 269]
COc1cccc(CNc2cccc(-c3nc4ccccc4[nH]3)c2)n1 [compound 270]
O=C1Nc2ccccc2/C1=N/N=C/c1ccc(OCc2cn(Cc3ccc(F)cc3)nn2)cc1 [compound 271]
Cn1ccnc1SC(=O)c1ccc(-c2ccccc2F)o1 [compound 272]
O=C(/C=C/c1ccc(Cl)cc1)c1cc2ccccc2oc1=O [compound 273]
O=C(/C=C/c1ccc(O)c(O)c1)c1cccc2[nH]c(=O)oc12 [compound 274]
Brc1ccc(CNc2cccc(-c3nc4ccccc4[nH]3)c2)cc1 [compound 275]
O=C(COc1c(I)cc(Cl)c2cccnc12)c1ccc(Cl)cc1Cl [compound 276]
Cc1ccc(/C(CSc2nnc3c(n2)[nH]c2ccccc23)=N\c2nnc(-c3ccc(Cl)c(Cl)c3)s2)cc1 [compound 277]
c1ccc(-c2cnc3ccccc3n2)cc1 [compound 278]

Same assay, conditions: activity label of the modeling dataset, sheet Table S5; 1 = active, 0 = inactive; cited from earlier work

activity, 1:
COc1ccc(/C=N/N=C(/C)c2ccc([N+](=O)[O-])cc2)cc1 [compound 279]
CC(C)=CCn1c(=O)oc2c(C(=O)/C=C/c3cc(F)c(O)c(F)c3)cccc21 [compound 280]
Cc1ccc(-c2cc(C(F)(F)F)nn2-c2ccc(S(=O)(=O)NC(=O)c3ccc(C)c([N+](=O)[O-])c3)cc2)cc1 [compound 281]
Clc1ccc(-c2cnc3ccccc3n2)c(Cl)c1 [compound 283]
COC(=O)Cn1c(=O)oc2c(C(=O)/C=C/c3ccc(O)c(F)c3)cccc21 [compound 284]
CCC/C=N/N=C(/C)c1ccc([N+](=O)[O-])cc1 [compound 285]
O=[N+]([O-])c1ccc(-c2cnc3ccccc3n2)cc1 [compound 286]
COC(=O)Cn1c(=O)oc2c(C(=O)/C=C/c3ccc(O)cc3)cccc21 [compound 287]
c1ccc(-c2ccc(-c3cnc4ccccc4n3)cc2)cc1 [compound 288]
O=c1c(O)c(-c2ccc(O)c(O)c2)oc2cc(O)cc(O)c12 [compound 289]
Clc1cccc(-c2cnc3ccccc3n2)c1 [compound 290]
COc1ccc(/C=N/N=C(/C)c2ccc([N+](=O)[O-])cc2)c(OC)c1 [compound 291]
CCOC(=O)c1c(SCC(=O)Nc2ccccc2)nnc(-c2ccccc2)c1-c1ccccc1 [compound 292]
CC(C)=CCn1c(=O)oc2c(C(=O)/C=C/c3ccc(O)c(F)c3)cccc21 [compound 293]
Cc1cc2ncc(-c3ccccc3)nc2cc1C [compound 294]
Clc1ccc(-c2cnc3ccccc3n2)cc1Cl [compound 295]
CCOC(=O)c1cc(-c2ccc(Br)cc2)n2nc3ccccc3c2n1 [compound 296]
Cn1ccnc1SC(=O)c1ccc(-c2cccc(Cl)c2)o1 [compound 298]
Cc1ccc(-n2cc(/C=N\NC(=O)Nc3ccccc3)c(-c3ccc([N+](=O)[O-])cc3)n2)cc1 [compound 299]
